Measured values: ChEMBL document CHEMBL1201862, “PubChem BioAssay data set” (2004)
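96-well plates; 48 h exposure; 5 concentrations. Endpoints by linear interpolation between flanking doses. Not reached: highest tested concentration assigned. Here, GI50 denotes the concentration required for 50% inhibition of growth.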 Calls of active or inactive are those of the source. No stated cut-off is given here; in the data, active = GI50 up to about 1.1 µM and inactive = higher. Where a SMILES comes first, the peptide text is derived from it. [ ]: non-standard residue; d: D form. The star is where a group is joined. ξ: configuration not given here. ξPhe(4-NO2) = NC(Cc1ccc([N+](=O)[O-])cc1)C(=O)O; Boc = CC(C)(C)OC(=O)*

Legend:
Assay in all cases: DTP human tumour cell line panel, 48 h
MDA-MB-231 = system: MDA-MB-231
LOX IMVI = system: LOX IMVI
SF-268 = system: SF-268
SN12C = system: SN12C
UACC-62 = system: UACC-62
NCI-H23 = system: NCI-H23
PC-3 = system: PC-3
NCI-H226 = system: NCI-H226
SF-295 = system: SF-295
RXF 393 = system: RXF 393
MOLT-4 = system: MOLT-4
T47D = system: T47D
SNB-75 = system: SNB-75
HT-29 = system: HT-29
K562 = system: K562
NCI/ADR-RES = system: NCI/ADR-RES
CCRF-CEM = system: CCRF-CEM
OVCAR-8 = system: OVCAR-8
TK-10 = system: TK-10
SR = system: SR

Measured: GI50

CN(C)c1ccc(/C=N\NC(=O)c2ccccc2Nc2ccccc2C(=O)N/N=C/c2ccc(N(C)C)cc2)cc1
inactive: MDA-MB-231 23.3 µM | LOX IMVI 92.9 µM | SF-268 > 100 µM | SN12C > 100 µM | UACC-62 > 100 µM | NCI-H23 > 100 µM | PC-3 > 100 µM | NCI-H226 > 100 µM | SF-295 > 100 µM | RXF 393 > 100 µM | MOLT-4 > 100 µM | T47D > 100 µM | SNB-75 > 100 µM | HT-29 > 100 µM | K562 > 100 µM | NCI/ADR-RES > 100 µM | CCRF-CEM > 100 µM | OVCAR-8 > 100 µM | TK-10 > 100 µM | SR > 100 µM

Oc1ccc2c(c1)-c1c(c3cc(O)ccc3n1CCN1CCOCC1)CC2
inactive: MDA-MB-231 17.6 µM | LOX IMVI 17.6 µM | SF-268 44.8 µM | SN12C 35.3 µM | UACC-62 16.7 µM | NCI-H23 25.3 µM | PC-3 18.4 µM | NCI-H226 18.5 µM | SF-295 20.1 µM | RXF 393 19.7 µM | MOLT-4 19.6 µM | T47D 18.8 µM | SNB-75 19.5 µM | HT-29 26 µM | K562 20 µM | NCI/ADR-RES 24.8 µM | CCRF-CEM 22.8 µM | OVCAR-8 30.4 µM | TK-10 41.1 µM | SR 18.4 µM

CC(CO)CCNc1ncnc2c1ncn2CCC#N (stereo not given)
inactive: MDA-MB-231 > 100 µM | LOX IMVI > 100 µM | SF-268 > 100 µM | SN12C > 100 µM | UACC-62 > 100 µM | NCI-H23 > 100 µM | PC-3 > 100 µM | NCI-H226 > 100 µM | SF-295 > 100 µM | RXF 393 > 100 µM | MOLT-4 > 100 µM | T47D > 100 µM | SNB-75 > 100 µM | HT-29 > 100 µM | K562 > 100 µM | NCI/ADR-RES > 100 µM | CCRF-CEM > 100 µM | OVCAR-8 > 100 µM | TK-10 > 100 µM | SR > 100 µM

C[C@@H]1O[C@@H]2OCC[C@@H]2C2=C1C(=O)c1ccccc1C2=O
inactive: MDA-MB-231 33.7 µM | LOX IMVI 1.92 µM | SF-268 4.97 µM | SN12C 6.35 µM | UACC-62 4.35 µM | NCI-H23 4.88 µM | PC-3 3.65 µM | NCI-H226 26.7 µM | SF-295 15.8 µM | RXF 393 3.46 µM | MOLT-4 7.74 µM | T47D 5.12 µM | SNB-75 9.95 µM | HT-29 40 µM | K562 10.1 µM | NCI/ADR-RES 2.02 µM | CCRF-CEM 6.87 µM | OVCAR-8 6.85 µM | TK-10 19.7 µM | SR 4.24 µM

O=C1C[C@@H](Sc2ccccc2)C2(OCCO2)C2ON3CCCC[C@H]3[C@H]12 (stereo not given in full)
active: MOLT-4 0.989 µM | CCRF-CEM 0.92 µM | SR 0.927 µM
inactive: MDA-MB-231 12.6 µM | LOX IMVI 2.49 µM | SF-268 7.55 µM | SN12C 3.82 µM | UACC-62 6.03 µM | NCI-H23 9.38 µM | PC-3 7.36 µM | NCI-H226 13.8 µM | SF-295 15.9 µM | RXF 393 4.48 µM | T47D 16.2 µM | SNB-75 12.4 µM | HT-29 4.75 µM | K562 2.11 µM | NCI/ADR-RES 5.78 µM | OVCAR-8 3.87 µM | TK-10 6.34 µM

CC1=[N+]([O-])C(C)(C)N(O)C1(C)C
inactive: MDA-MB-231 > 100 µM | LOX IMVI > 100 µM | SF-268 > 100 µM | SN12C > 100 µM | UACC-62 > 100 µM | NCI-H23 > 100 µM | PC-3 > 100 µM | NCI-H226 > 100 µM | SF-295 > 100 µM | RXF 393 > 100 µM | MOLT-4 > 100 µM | T47D > 100 µM | SNB-75 > 100 µM | HT-29 > 100 µM | K562 > 100 µM | NCI/ADR-RES > 100 µM | CCRF-CEM > 100 µM | OVCAR-8 > 100 µM | TK-10 > 100 µM | SR > 100 µM

N=c1oc2c(Cl)cc(Cl)cc2cc1C(=O)Nc1cccc2ccccc12
inactive: MDA-MB-231 3.78 µM | LOX IMVI 4.7 µM | SF-268 18 µM | SN12C 3.58 µM | UACC-62 40.6 µM | NCI-H23 16.5 µM | PC-3 24.2 µM | NCI-H226 19.3 µM | SF-295 18.7 µM | RXF 393 16.7 µM | MOLT-4 7.48 µM | T47D 5.2 µM | SNB-75 3.2 µM | HT-29 39.4 µM | K562 13.3 µM | NCI/ADR-RES 4.93 µM | CCRF-CEM 3.57 µM | OVCAR-8 3.44 µM | TK-10 2.33 µM | SR 12.4 µM

CCNC(=O)CNC(=O)C(Cc1ccc([N+](=O)[O-])cc1)NC(=O)OC(C)(C)C (stereo not given) (Boc-[ξPhe(4-NO2)]-Gly-NHEt)
inactive: MDA-MB-231 > 100 µM | LOX IMVI > 100 µM | SF-268 > 100 µM | SN12C > 100 µM | UACC-62 > 100 µM | NCI-H23 > 100 µM | PC-3 > 100 µM | NCI-H226 > 100 µM | SF-295 > 100 µM | RXF 393 > 100 µM | MOLT-4 > 100 µM | T47D > 10 µM | SNB-75 > 100 µM | HT-29 > 100 µM | K562 > 100 µM | NCI/ADR-RES > 100 µM | CCRF-CEM > 100 µM | OVCAR-8 > 100 µM | TK-10 > 100 µM | SR > 100 µM

CC1=CCCC2C1(C)CCC(C)C2(C)Cc1cc(O)ccc1O (stereo not given)
inactive: MDA-MB-231 12.9 µM | LOX IMVI 5.48 µM | SF-268 7.26 µM | SN12C 8.3 µM | UACC-62 8.49 µM | NCI-H23 4.44 µM | PC-3 5.75 µM | NCI-H226 9.29 µM | SF-295 6.3 µM | RXF 393 7.6 µM | MOLT-4 2.43 µM | T47D 6.59 µM | SNB-75 7.66 µM | HT-29 18.7 µM | K562 4.81 µM | NCI/ADR-RES 5.21 µM | CCRF-CEM 1.56 µM | OVCAR-8 4.54 µM | TK-10 11.1 µM | SR 5.46 µM

COc1ccc2nc3ccc(OC)cc3c(S(=O)(=O)Cc3ccc([N+](=O)[O-])cc3)c2c1
inactive: MDA-MB-231 61.7 µM | LOX IMVI > 100 µM | SF-268 85.5 µM | SN12C > 100 µM | UACC-62 > 100 µM | NCI-H23 > 100 µM | PC-3 > 100 µM | NCI-H226 > 100 µM | SF-295 61.5 µM | RXF 393 > 100 µM | MOLT-4 > 100 µM | T47D > 100 µM | SNB-75 38.7 µM | HT-29 68.7 µM | K562 > 100 µM | NCI/ADR-RES > 100 µM | CCRF-CEM > 100 µM | OVCAR-8 > 100 µM | TK-10 > 100 µM | SR > 100 µM
